A short description of this series: Rat brain concentration. The format is in vivo, Sprague Dawley rats. The note with it: Sprague Dawley, po, P.O. 5 mg/Kg; for concentration at 2 h / concentration at 4 h / concentration at 24 h: brain, 5 mg/kg. Here is the method:
Brain concentration: Three rats are for brain collection (2h) only. Three rats are for brain collection (4 h) only. The rest 3 rats are for plasma (9 time points) and brain collection (24h).
Brain Collection and Tissue Processing: Post blood collection, the brain was first perfused intracardially with ˜150 mL of ice-cold, 0.1 M Phosphate Buffered Saline (PBS) at pH7.4. Then, the dura was removed before weighing the brain. The brain was then dissected into smaller pieces, rinsed twice with ˜10 mL PBS, and then flash frozen on dry ice, and stored at −80° C. before analysis.
Before tissue processing, rat brains were thawed. For the preparation of analytical standards, purchased frozen rat brains (from Pelfreez) were similarly thawed, dissected, rinsed with PBS, and 100 μL of Compound A stock solution (at 500 ng/mL and 1, 2 5, 10, and 50 μg/mL in acetonitrile) was spiked directly into the tissue. Both Compound A dosed and spiked brains then underwent the same processing procedures described below.
Briefly, 2 mL of water was added to each brain before homogenization. Homogenize the brain in 2 to 3 sessions, each approximately 15 sec. The mechanical probe of the homogenizer was cleansed in water, 70% ethanol, and ethyl acetate after each sample. The resulting brain homogenates were then extracted with ethyl acetate three times (14 mL total), and centrifuged to separate the aqueous and organic phases after each extraction. Per brain, pooled organic phase were evaporated under a stream of nitrogen at 40° C. and the residues were reconstituted with 4 mL of mobile phase B. Compound A spiked brain samples in the 4 mL solutions had final concentrations of 12.5, 25, 50, 125, 250, 1250 ng/mL. The reconstituted samples were incubated for ˜15 minutes at 60° C. and, vortexed for 10 minutes to fully dissolve the analytes. The samples were centrifuged, and then further diluted with Mobile phase B (shown below) before LC/MS/MS analysis. Dilute 20 μL of reconstituted samples with 1.5 mL mobile phase B. Transfer and inject supernatant to […] system for analysis.

Where two headings read alike, the source gives them in different places.

Regarding `CN(C)C/C=C/C(=O)Nc1cc2c(Nc3ccc(F)c(Cl)c3)ncnc2cc1C#C[C@@H]1[C@H]2COC[C@@H]12` [Example 4, (E)-N-(4-(3-chloro-4-fluorophenylamino)-7-(2-((1R,5S,6s)-3-oxa-bicyclo[3.1.0]hexan-6-yl)ethynyl)quinazolin-6-yl)-4-(dimethylamino)but-2-enamide], the concentration at 2 h (2 hr, read-out: Brain Conc. (ng/g) Mean) is 156 ng/g; the concentration at 2 h (2 hr, read-out: Brain Conc. (ng/g) No. 1) was found to be 118 ng/g; the concentration at 2 h (2 hr, read-out: Brain Conc. (ng/g) No. 2) was 156 ng/g; the concentration at 2 h (2 hr, read-out: Brain Conc. (ng/g) No. 3) is 194 ng/g. Besides, the concentration at 4 h was 173 ng/g (4 hr, read-out: Brain Conc. (ng/g) Mean); 127 ng/g (4 hr, read-out: Brain Conc. (ng/g) No. 1); 209 ng/g (4 hr, read-out: Brain Conc. (ng/g) No. 2); 185 ng/g (4 hr, read-out: Brain Conc. (ng/g) No. 3). Besides, the concentration at 24 h turned out to be 17.6 ng/g (24 hr, read-out: Brain Conc. (ng/g) Mean); 26 ng/g (24 hr, read-out: Brain Conc. (ng/g) No. 1); 11 ng/g (24 hr, read-out: Brain Conc. (ng/g) No. 2); 15.8 ng/g (24 hr, read-out: Brain Conc. (ng/g) No. 3). The Kp at 2 h (brain/plasma, 2 hr, read-out: B/P ratio) came out at 4. Further, for the setting “brain/plasma, 4 hr, read-out: B/P ratio”, the Kp at 4 h was 4.4. The Kp at 24 h (brain/plasma, 24 hr, read-out: B/P ratio) was found to be 8.7.
